{"source": "patent US20240132445A1", "about": "“PHENOL DERIVATIVE AND APPLICATION THEREOF IN MEDICAMENTS” (priority 2021, published 2024)", "key": {"[1]": {"tested_on": "SD rats", "test": "animal or person", "type": "in vivo", "details": "rats", "procedure": "(§2) SD rats, half male and half female, were fasted with water available for 12 h, and were administered via intravenous injection at an administration volume of 10 mL/kg. Then the anesthesia induction time (the time period from drug administration to disappearance of the righting reflex), the anesthesia maintenance time (the time period from disappearance of the righting reflex to recovery of the righting reflex and revival) and the anesthesia recovery time (the time period from revival to complete recovery) were recorded. Indicators including the median effective dose (ED50), median lethal dose (LD50), therapeutic index (TI, i.e. LD50/ED50), anesthesia induction time, anesthesia maintenance time and maximum tolerated dose were used to evaluate the effect and safety of anesthesia."}, "[2]": {"test": "in vivo", "type": "in vivo, rats", "details": "both sexes, Sprague-Dawley, rat, in vivo, rats", "procedure": "as §2"}, "[3]": {"test": "Pharmacokinetic study in rats", "type": "in vivo, SD rats", "details": "male, Sprague-Dawley, rat, plasma, iv, 1 mg/kg", "method": "Twelve male SD rats (200-300 g) were randomized into 2 groups (n=6): control group 3 and compound 20. The rats were administered via intravenous injection at 1 mg/kg (control group 3) and 1 mg/kg (compound 20), respectively, with an administration volume of 5 mL/kg and a vehicle of 5% DMSO+10% solutol (HS15)+85% Saline. Blood samples were taken before administration and at 2 min, 4 min, 8 min, 12 min, 15 min, 30 min, 1 h, 1.5 h and 2 h after administration. Plasma samples were taken by centrifugation, and stored in a −80° C. refrigerator until LC-MS analysis to be tested. After sample processing, quantitative analysis of substances in plasma was conducted using LCMS/MS to detect the concentration of prototype compounds in the plasma. The plasma concentration/time curve obtained in this way was used to calculate pharmacokinetic parameters by a validated pharmacokinetic computer program."}, "[4]": {"tested_on": "Beagle dogs", "test": "Hemodynamic effect study in conscious Beagle dogs (telemetry)", "type": "in vivo", "details": "iv", "method": "The experiment used an emka PACK 4G telemetry system to detect the effects of intravenous injection of control group 3 and compound 20 on electrocardiogram, blood pressure and body temperature in conscious Beagle dogs, providing reference information for evaluating the safety of clinical use.\nFour Beagle dogs were subjected to crossover administration, with a vehicle control (5% DMSO+10% solutol+85% Saline), control group 3 (2 mg/kg), compound 20 (0.5 mg/kg) and compound 20 (1 mg/kg) for each intravenous injection, with an administration volume of 2 mL/kg. Observations were respectively conducted before administration and within 1 h after administration on the day of administration. Anal temperature was measured before administration and at 30 min, 1 h, 2 h and 3 h after administration during each administration period; and electrocardiogram parameters were continuously collected from 0.5 h before administration to 3 h after administration during each administration period. Blood pressure was collected at 15 min after collection was started, and was collected at 2 min, 5 min, 10 min, 20 min, 30 min, 1 h, 2 h and 3 h after administration. The electrocardiogram, blood pressure data, body temperature, and clinical observation results on the day of administration at various time points including before administration (at 30 min after collection was started) and at 2 min, 5 min, 10 min, 20 min, 30 min, 1 h, 2 h and 3 h after administration were analysed and evaluated."}, "[5]": {"biological_target": "GABAA (α1β2γ2) receptor (Homo sapiens (Human), UniProt P14867+P18507+P47870)", "sequence (P14867 28-456 limits assumed)": "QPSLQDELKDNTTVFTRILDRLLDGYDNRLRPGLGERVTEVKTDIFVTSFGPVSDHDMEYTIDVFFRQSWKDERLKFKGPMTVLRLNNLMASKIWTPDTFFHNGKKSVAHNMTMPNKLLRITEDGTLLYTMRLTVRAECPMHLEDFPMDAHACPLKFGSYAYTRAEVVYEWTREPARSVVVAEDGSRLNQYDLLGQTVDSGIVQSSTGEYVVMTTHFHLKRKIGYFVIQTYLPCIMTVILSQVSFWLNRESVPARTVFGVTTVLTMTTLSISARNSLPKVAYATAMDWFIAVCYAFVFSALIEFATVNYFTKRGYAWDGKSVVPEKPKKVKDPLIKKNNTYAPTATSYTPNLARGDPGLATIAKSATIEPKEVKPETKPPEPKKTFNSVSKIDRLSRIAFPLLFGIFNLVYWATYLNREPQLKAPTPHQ", "sequence (P47870 26-512 limits assumed)": "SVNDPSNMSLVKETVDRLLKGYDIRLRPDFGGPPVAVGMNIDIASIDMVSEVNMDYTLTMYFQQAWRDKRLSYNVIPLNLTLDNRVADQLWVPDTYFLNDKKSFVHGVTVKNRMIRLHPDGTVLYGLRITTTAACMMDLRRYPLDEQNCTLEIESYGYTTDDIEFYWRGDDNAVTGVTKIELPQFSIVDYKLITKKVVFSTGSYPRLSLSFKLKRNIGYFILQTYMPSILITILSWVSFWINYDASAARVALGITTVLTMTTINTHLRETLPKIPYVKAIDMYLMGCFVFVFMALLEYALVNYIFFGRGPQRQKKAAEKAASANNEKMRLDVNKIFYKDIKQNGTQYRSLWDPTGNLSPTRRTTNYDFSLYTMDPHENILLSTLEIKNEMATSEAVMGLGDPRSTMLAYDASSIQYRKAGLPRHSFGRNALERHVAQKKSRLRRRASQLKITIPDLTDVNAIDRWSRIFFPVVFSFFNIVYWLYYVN", "sequence (P18507 40-475 limits assumed)": "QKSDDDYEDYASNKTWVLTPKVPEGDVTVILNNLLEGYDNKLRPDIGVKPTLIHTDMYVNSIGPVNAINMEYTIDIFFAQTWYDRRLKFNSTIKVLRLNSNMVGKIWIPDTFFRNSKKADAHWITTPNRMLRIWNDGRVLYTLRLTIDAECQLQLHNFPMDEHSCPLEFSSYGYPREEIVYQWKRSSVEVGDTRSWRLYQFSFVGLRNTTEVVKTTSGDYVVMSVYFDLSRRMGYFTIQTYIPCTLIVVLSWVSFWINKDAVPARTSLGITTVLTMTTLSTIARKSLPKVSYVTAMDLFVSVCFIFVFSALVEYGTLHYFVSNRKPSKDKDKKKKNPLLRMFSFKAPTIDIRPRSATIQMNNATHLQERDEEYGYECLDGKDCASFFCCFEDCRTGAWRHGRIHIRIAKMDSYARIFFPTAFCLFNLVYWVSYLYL", "test": "Whole-cell patch-clamp of GABAA (α1β2γ2) receptor current in stably expressing HEK293 cells", "type": "cell-based", "details": "allosteric regulation", "from_the_text": "Gamma-aminobutyric acid (GABA) was an important inhibitory amino acid neurotransmitter in the central nervous system, and functioned by binding to GABA receptors. The GABA receptors were divided into three subtypes: GABAA, GABAB and GABAC, among which the GABAA receptor was the most important. The GABAA receptor was an anion-selective ion channel that could enhance chloride ion permeability and thus reduce neuronal excitability. The GABAA receptor was involved in regulating general anesthesia and was also closely related to diseases such as neurological and psychiatric disorders, e.g., depression, insomnia, anxiety and epilepsy. […]\nHEK293 cell lines stably expressing the GABAA (α1β2γ2) receptor were used. […] The voltage stimulus of GABA receptor current recorded by a whole-cell patch-clamp technique was as follows: when whole-cell sealing was formed, the cell membrane voltage was clamped at −70 mV. The peak value of current was recorded after sequentially spraying test compounds from low concentration to high concentration and 100 μM GABA onto the cell surface in a Gap-free mode. […] Then slow capacitance compensation was conducted, and the membrane capacitance (pF) and series resistance were recorded. […] Multiple cells were independently and repeatedly detected. […]"}, "[6]": {"tested_on": "ICR mice", "test": "animal or person", "method": "(§1) SPF-grade ICR mice, each weighing 18-22 g, half male and half female, were used. A well-established mouse anesthesia model was used to study the general anesthesia effect of the compound of the present invention. The compounds were formulated with solvents of 10% DMSO, 15% solutol (HS15) and 75% saline to the desired concentration, for further use. After adapting to the experimental environment, the experimental animals were fasted with water available for 12 h, and were administered via intravenous injection at an administration volume of 10 mL/kg. Then the anesthesia induction time (the time period from drug administration to disappearance of the righting reflex) and the anesthesia maintenance time (the time period from disappearance of the righting reflex to recovery of the righting reflex) were recorded. Indicators including the median effective dose (ED50), median lethal dose (LD50), therapeutic index (TI, i.e. LD50/ED50), anesthesia induction time, anesthesia maintenance time and maximum tolerated dose were used to evaluate the effect and safety of anesthesia."}, "[7]": {"test": "in vivo", "details": "both, ICR, mouse, in vivo, iv", "method": "as §1"}, "[8]": {"test": "Pharmacokinetic study in Beagle dogs", "type": "in vivo", "details": "male, dog, plasma, iv, 0.5 mg/kg", "method": "Six male Beagle dogs (6-10 kg) were randomized into 2 groups (n=3): control group 3 and compound 20. The […] were administered via intravenous injection at 0.5 mg/kg (control group 3) and 0.5 mg/kg (compound 20), respectively, with an administration volume of 1 mL/kg and a vehicle of 5% DMSO+10% solutol (HS15)+85% Saline. Blood samples were taken before administration and at 2 min, 5 min, 10 min, 20 min, 30 min, 1 h, 1.5 h, 2 h and 3 h after administration. Plasma samples were taken by centrifugation, and stored in a −80° C. refrigerator until LC-MS analysis to be tested. After sample processing, quantitative analysis of substances in plasma was conducted using LCMS/MS to detect the concentration of prototype compounds in the plasma. The plasma concentration/time curve obtained in this way was used to calculate pharmacokinetic parameters by a validated pharmacokinetic computer program."}}, "note": "Read-outs that look alike come from different tables or passages of the source."}
{"smiles": "CCS(=O)(=O)[C@@H](C)c1cccc([C@H](C)C2CC2)c1O", "note": "[Compound 20, 2-((R)-1-cyclopropylethyl)-6-((S)-1-(ethylsulfonyl)ethyl)phenol]", "values": [{"measurement": "ED50", "setting": "[1]; Rattus norvegicus, intravenous injection, loss of righting reflex, read-out: ED50", "result": 0.5, "unit": "mg/kg"}, {"measurement": "TI", "setting": "[1]; LD50/ED50", "result": 6.4}, {"measurement": "Anesthesia induction time", "setting": "[1]; iv, administration to disappearance of righting reflex", "result": 10, "unit": "s"}, {"measurement": "Anesthesia maintenance time", "setting": "[1]; iv, disappearance to recovery of righting reflex", "result": 624, "unit": "s"}, {"measurement": "LD50", "setting": "[2]; intravenous injection, read-out: LD50", "result": 3.2, "unit": "mg/kg"}, {"measurement": "MTD", "setting": "[2]; iv, maximum tolerated dose, read-out: MTD", "result": 2.2, "unit": "mg/kg"}, {"measurement": "AUC(0-t)", "setting": "[3]", "result": 0.196, "unit": "µg·h/mL"}, {"measurement": "half-life", "setting": "[3]", "result": 19.8, "unit": "min"}, {"measurement": "effect on the heart rate, blood pressure and body temperature", "setting": "[4]; 0.5 and 1 mg/kg", "result": "little effect"}, {"measurement": "change in heart rate after administration", "setting": "[4]; control group 3 2 mg/kg, compound 20 0.5 and 1 mg/kg, within 1 h, recovery after 1 h", "result": "slow down in heart rate"}, {"measurement": "EC50", "setting": "[5]; HEK293, -70 mV, n=3, read-out: EC50", "result": 1.56, "unit": "µM"}, {"measurement": "EC50", "setting": "[5]; HEK293, text restatement, read-out: semi-activated concentration (EC50)", "result": 1.56, "unit": "µM"}, {"measurement": "ED50", "setting": "[6]; Mus musculus, iv", "result": 0.6, "unit": "mg/kg"}, {"measurement": "TI", "setting": "[6]; mice, LD50/ED50", "result": 5.8}, {"measurement": "Anesthesia induction time", "setting": "[6]; mice, iv, administration to disappearance of righting reflex", "result": 2, "unit": "s"}, {"measurement": "Anesthesia maintenance time", "setting": "[6]; mice, iv, disappearance to recovery of righting reflex", "result": 573, "unit": "s"}, {"measurement": "LD50", "setting": "[7]", "result": 3.5, "unit": "mg/kg"}, {"measurement": "MTD", "setting": "[7]", "result": 1.8, "unit": "mg/kg"}, {"measurement": "AUC(0-t)", "setting": "[8]", "result": 0.128, "unit": "µg·h/mL"}, {"measurement": "half-life", "setting": "[8]", "result": 47.4, "unit": "min"}]}
